The source of these data is patent US10023591B2, “Heterocyclic derivatives and use thereof” (C&C RESEARCH LABORATORIES, priority 2014, dated 2018).

One may read the IC50 as the point on the concentration scale where inhibition reaches its midpoint.

The test system of one test is STAT1. Description: STAT1 reporter gene assay (luciferase), U2OS stable cell line pGL4-STAT1-TA-luc, IFN-γ stimulation. The test is classed as cell-based, human. To be noted: Homo sapiens, IFN-γ 50 ng/mL, 8 hours, read-out: IC50 (μM) pSTAT1. Here is the method:
1-2) Experiment on the Inhibition of STAT1 Activity
A human osteosarcoma cell line (U2OS stable cell line; pGL4-STAT1-TA-luc), which contains a stably operating STAT1 promoter, was cultured in McCoy 5′A medium (Cat No. 16600, Life Technologies) containing 10% FBS (Cat No. SH30396, Thermo Scientific) and 1000 μg/mL G418 solution (Cat No. 04 727 894 001, Roche). The reporter gene assay using U2OS stable cell line was performed in McCoy 5′A medium containing 10% FBS without G-418 solution. U2OS stable cells were plated in two (2) white 96-well plates with 25,000 cells/50 pt in each well. The cells were cultured at 37° C., under 5% CO2 for 24 hours, and then treated with the compounds listed in Examples which were diluted in various concentrations. Subsequently, IFN-γ was added to each well with a final concentration of 50 ng/mL. Upon completion of the treatment with the compounds and IFN-γ, the cells were cultured at 37° C., under 5% CO2 for 8 hours. The plates were observed under microscope and drug precipitation and particular findings were investigated and recorded.
(§1) The luciferase assay and the cell viability assay were performed respectively with one of two plates. For the luciferase assay, the liquid media in the 96-well plate was removed, and then, 20 μL of passive cell lysis buffer was added to each well. After shaking the plate for 30 minutes, luciferase activities of each well were measured in a PHERAstar™ microplate reader (BMG LABTECH) using a luciferase assay system (Cat No. E1501, Promega). For the cell viability assay, the 96-well plate was placed at room temperature for 30 minutes, added with 20 μL/well of CellTiter-Glo solution (Cat No. G7573, Promega), and shaken for 10 minutes in order to measure cytotoxicity caused by the compounds listed in Examples with a PHERAstar™ microplate reader (BMG LABTECH). Wells without 0.1% DMSO and stimulation were used as a negative control and wells with 0.1% DMSO and stimulation were used as a positive control.
(§2) The results of evaluation on the inhibitory effect of the compounds listed in the Examples on the dimerization of STAT3 and STAT1 obtained via the STAT3 and STAT1 reporter gene assays are shown in Table 9 below.

The test system of another test is STAT3. In words: STAT3 reporter gene assay (luciferase), LNCaP stable cell line pSTAT3-TA-luc, IL-6 stimulation. The format is cell-based, human. To be noted: Homo sapiens. On the procedure: 1-1) Experiment on the Inhibition of STAT3 Activity
A human prostate cancer cell line (LNCaP stable cell line; plasmid pSTAT3-TA-luc), which contains a stably operating STAT3 promoter, was cultured in RPMI1640 medium (Cat No. 11875, Life Technologies) containing 10% fetal bovine serum (FBS) (Cat No. SH30396, Thermo Scientific) and 150 μg/mL G-418 solution (Cat No. 04 727 894 001, Roche). The reporter gene assay using LNCaP stable cell line was performed in RPMI1640 medium containing 3% DCC-FBS without G-418 solution. LNCaP stable cells were plated in two (2) white 96-well plates with 30,000 cells/50 μL in each well. The cells were cultured at 37° C., under 5% CO2 for 24 hours, and then treated with the compounds listed in Examples which were diluted in various concentrations. Subsequently, IL-6 was added to each well with a final concentration of 10 ng/mL. Upon completion of the treatment with the compounds and IL-6, the cells were cultured at 37° C., under 5% CO2 for 24 hours. The plates were observed under microscope and drug precipitation and particular findings were investigated and recorded.
as §1, with “one of the two plates.” for “one of two plates.”, “then, 20 μL, of passive” for “then, 20 μL of passive”
as §2
(In general: Reporter assays use an easily measured gene product as a stand-in for the process of interest.)

The test system of test [1] is NCI-N87 stomach cancer cell line. Description: Cell growth inhibition assay, NCI-N87 (CellTiter-Glo). The format is cell-based. To be noted: Homo sapiens; NCI-N87, 5,000 cells/well, 96 hours. Here is the method: The inhibitory effects of the compounds of the present invention against the growth of cancer cells were evaluated as shown below. The cancer cell lines including prostate cancer cell lines (LNCaP, DU-145), stomach cancer cell line (NCI-N87), and breast cancer cell lines (MDA-MB-468) were cultured under the protocol provided by each supplier. A medium supplemented with 10 ng/mL of IL-6 was used for LNCaP, a prostate cancer cell line, when treated with a drug. Each type of cells to be used in experiments was sub-cultured in a 96-well plate by counting the exact number of cells using Tali™ Image-based Cytometer (Life Technologies). In a 96-well plate, DU-145 was employed with 3,000 cells/well; NCI-N87 was employed with 5,000 cells/well; and LNCaP and MDA-MB-468 were employed with 10,000 cells/well. The cells were treated with the compounds listed in Examples which were diluted in various concentrations. Upon completion of the compounds treatment, LNCaP, DU-145, NCI-N87 cells were cultured at 37° C. under 5% CO2 for 96 hours, and MDA-MB-468 cells were cultured at 37° C. in air for 96 hours. Subsequently, the cells were observed under microscope and drug precipitation and particular findings were investigated and recorded. And then, the 96-well plate was placed at room temperature for 30 minutes, added with 20 pt/well of CellTiter-Glo solution (Cat No. G7573, Promega) and shaken for 10 minutes, followed by being subjected to the measurement using PHERAstar™ microplate reader (BMG LABTECH) according to the supplier's general luminometer protocol. Wells where only culture liquid added without cell plating were used as a negative control, whereas wells where culture liquid containing 0.1% DMSO instead of the compounds listed in Examples were used as a positive control.
In general terms: In ATP-based viability assays light output follows the ATP content of the culture.

For the compound `CC(C)(c1ccc2sc(C(=N)Nc3cc(Cl)cc(Oc4ccc(Cl)cc4)c3)cc2c1)S(C)(=O)=O` [Example 103, N-(3-chloro-5-(4-chlorophenoxy)phenyl)-5-(2-(methylsulfonyl)propan-2-yl)benzo[b]thiophene-2-carboximidamide 2,2,2-trifluoroacetate], the half-maximal inhibitory concentration (IC50) in the test with STAT1 is more than 50 µM; in the test with STAT3, 0.18 µM; in test [1], 1.3 µM.

On to `COCCS(=O)(=O)C(C)(C)c1ccc2sc(C(=O)Nc3cc(Cl)cc(Oc4ccc(Cl)cc4)c3)cc2c1` [Example 57, N-(3-chloro-5-(4-chlorophenoxy)phenyl)-5-(2-((2-methoxyethyl)sulfonyl)propan-2-yl)benzo[b]thiophene-2-carboxamide], for which the IC50 in the test with STAT1 was more than 50 µM; in the test on STAT3 it was 0.027 µM; in test [1] it was 0.2 µM.

Consider `CC(C)(c1ccc2sc(C(=O)Nc3cc(Cl)nc(OC4CC=C(Cl)CC4)c3)cc2c1)S(C)(=O)=O` (stereo not shown) [Example 101, N-(2-chloro-6-((4-chlorocyclohex-3-en-1-yl)oxy)pyridin-4-yl)-5-(2-(methylsulfonyl)propan-2-yl)benzo[b]thiophene-2-carboxamide], for which the figures for the IC50 (with STAT1; in the test on STAT3; in test [1]) were more than 50 µM, 0.0093 µM and 0.068 µM, respectively.

With `CC(C)(c1ccc(Cl)cc1)c1cc(Cl)cc(NC(=O)c2cc3ccc(C(C)(C)S(C)(=O)=O)cc3[nH]2)c1` [Example 35, N-(3-chloro-5-(2-(4-chlorophenyl)propan-2-yl)phenyl)-6-(2-(methylsulfonyl)propan-2-yl)-1H-indole-2-carboxamide], the IC50 is more than 50 µM in the test with STAT1 and 0.1 µM in the test on STAT3.

On to `CC(C)(c1ccc2sc(C(=O)Nc3cc(Cl)cc(Oc4ccc(Cl)nc4)c3)cc2c1)S(C)(=O)=O` [Example 60, N-(3-chloro-5-((6-chloropyridin-3-yl)oxy)phenyl)-5-(2-(methylsulfonyl)propan-2-yl)benzo[b]thiophene-2-carboxamide], for which the results for the IC50 with STAT1 and in the test with STAT3 were more than 50 µM and 0.12 µM, respectively.

Regarding `CC#Cc1cc(OC(F)(F)F)cc(C(C)(C)c2cc(Cl)cc(NC(=O)c3cc4cc(C(C)(C)S(C)(=O)=O)ccc4s3)c2)c1` [Example 87, N-(3-chloro-5-(2-(3-(prop-1-yn-1-yl)-5-(trifluoromethoxy)phenyl)propan-2-yl)phenyl)-5-(2-(methylsulfonyl)propan-2-yl)benzo[b]thiophene-2-carboxamide], the IC50 with STAT1 was more than 50 µM; in the test on STAT3, 0.0097 µM.

On to `CC(C)(c1cc(Cl)cc(NC(=O)c2cc3cc(C(C)(C)S(C)(=O)=O)ccc3s2)c1)c1cc(OC(F)(F)F)cc(OC(F)(F)C(F)F)c1` [Example 5, N-(3-chloro-5-(2-(3-(1,1,2,2-tetrafluoroethoxy)-5-(trifluoromethoxy)phenyl)propan-2-yl)phenyl)-5-(2-(methylsulfonyl)propan-2-yl)benzo[b]thiophene-2-carboxamide], for which the IC50 with STAT1 is more than 50 µM; in the test with STAT3, 0.028 µM.

For the compound `CC(C)(c1ccc2sc(C(=O)Nc3cc(Oc4ccc(Cl)cc4)cc(N4CCC4)c3)cc2c1)S(C)(=O)=O` [Example 59, N-(3-(azetidin-1-yl)-5-(4-chlorophenoxy)phenyl)-5-(2-(methylsulfonyl)propan-2-yl)benzo[b]thiophene-2-carboxamide], the IC50 with STAT1 was more than 50 µM; in the test with STAT3, 0.31 µM.

As for `CC(C)(c1cc(Br)cc(NC(=O)c2cc3cc(C(C)(C)S(C)(=O)=O)ccc3s2)c1)c1cc(OC(F)(F)F)cc(OC(F)(F)C(F)F)c1` [Example 4, N-(3-bromo-5-(2-(3-(1,1,2,2-tetrafluoroethoxy)-5-(trifluoromethoxy)phenyl)propan-2-yl)phenyl)-5-(2-(methylsulfonyl)propan-2-yl)benzo[b]thiophene-2-carboxamide], the figures for the IC50 with STAT1 and with STAT3 were more than 50 µM and 0.0091 µM, respectively.

As to `CC(C)(c1ccc(Cl)cc1)c1cc(Cl)cc(NC(=O)c2cc3cc(C(C)(C)S(C)(=O)=O)ncc3s2)c1` [Example 26, N-(3-chloro-5-(2-(4-chlorophenyl)propan-2-yl)phenyl)-5-(2-(methylsulfonyl)propan-2-yl)thieno[2,3-c]pyridine-2-carboxamide], the IC50 with STAT1 is more than 50 µM; in the test on STAT3 it was 0.065 µM.

Consider `COc1ccc(C(C)(C)c2cc(Cl)cc(NC(=O)c3cc4cc(C(C)(C)S(C)(=O)=O)ccc4s3)c2)s1` [Example 29, N-(3-chloro-5-(2-(5-methoxythiophen-2-yl)propan-2-yl)phenyl)-5-(2-(methylsulfonyl)propan-2-yl)benzo[b]thiophene-2-carboxamide], for which the IC50 was more than 50 µM with STAT1 and 0.0041 µM in the test with STAT3.

In the case of `CC(C)(c1ccc(F)cc1)c1cc(Br)cc(NC(=O)c2cc3cc(C(C)(C)S(C)(=O)=O)ccc3s2)c1` [Example 20, N-(3-bromo-5-(2-(4-fluorophenyl)propan-2-yl)phenyl)-5-(2-(methylsulfonyl)propan-2-yl)benzo[b]thiophene-2-carboxamide], the values for the IC50 in the test with STAT1 and in the test on STAT3 were more than 50 µM and 0.067 µM, respectively.

For the compound `CC(C)(c1ccc2cc(C(=O)Nc3cc(Cl)cc(Oc4ccc(Cl)cc4)c3)[nH]c2c1)S(C)(=O)=O` [Example 40, N-(3-chloro-5-(4-chlorophenoxy)phenyl)-6-(2-(methylsulfonyl)propan-2-yl)-1H-indole-2-carboxamide], the IC50 in the test with STAT1 is more than 50 µM; in the test with STAT3, 0.21 µM.

Regarding `COC(=O)c1cc(Oc2cc(NC(=O)c3cc4cc(C(C)(C)S(C)(=O)=O)ccc4s3)cc(Cl)n2)no1` [Example 118, methyl 3-((6-chloro-4-(5-(2-(methylsulfonyl)propan-2-yl)benzo[b]thiophene-2-carboxamido)pyridin-2-yl)oxy)isoxazole-5-carboxylate], the values for the IC50 with STAT1 and in the test on STAT3 were 8.6 µM and 6 µM, respectively.
